Experimental data as given in ChEMBL document CHEMBL1949531, “Synthesis and antiviral activities of novel gossypol derivatives” (Bioorg Med Chem Lett, 2012).
Calls of active or inactive are those of the source. The calls are words filed in the database; no cut-off is given here.

Experiments:
[1] = system: Human immunodeficiency virus 1; assay: Antiviral activity against HIV1 3B infected human TZM-bl cells assessed as inhibition of viral replication by luciferase reporter assay; type: functional, organism-based
[2] = Cytotoxicity in human TZM-bl cells by MTT assay; type: cell-based
[3] = Selectivity index, ratio of CC50 for human TZM-bl cells to IC50 for HIV1 3B; type: functional
[4] = target: Albumin (Homo sapiens, UniProt P02768); assay: Binding affinity to human serum albumin by fluorescence quenching assay; type: ADME; settings: isolated protein
[5] = system: Influenza A virus; assay: Antiviral activity against Influenza A virus (A/Vietnam/1194/2004(H5N1)) infected in MDCK cells assessed as inhibition of viral replication by plaque reduction assay; type: functional, organism-based
[6] = Cytotoxicity against MDCK cells by MTT assay; type: cell-based, Canis lupus familiaris; settings: dog
[7] = Selectivity index, ratio of CC50 for MDCK cells to IC50 for Influenza A virus (A/Vietnam/1194/2004(H5N1)); type: functional
[8] = system: Human immunodeficiency virus 1; assay: Antiviral activity against HIV1 3B infected human TZM-bl cells assessed as inhibition of viral replication at 10 uM treated immediately after infection by luciferase reporter assay; type: functional, organism-based
[9] = system: Human immunodeficiency virus 1; assay: Antiviral activity against HIV1 3B infected human TZM-bl cells assessed as inhibition of viral replication at 10 uM treated 2 hrs after viral infection by luciferase reporter assay; type: functional, organism-based
[10] = Human immunodeficiency virus 1, 3B, TZM-bl, read-out: IC50

Sequence of Albumin (P02768 whole entry): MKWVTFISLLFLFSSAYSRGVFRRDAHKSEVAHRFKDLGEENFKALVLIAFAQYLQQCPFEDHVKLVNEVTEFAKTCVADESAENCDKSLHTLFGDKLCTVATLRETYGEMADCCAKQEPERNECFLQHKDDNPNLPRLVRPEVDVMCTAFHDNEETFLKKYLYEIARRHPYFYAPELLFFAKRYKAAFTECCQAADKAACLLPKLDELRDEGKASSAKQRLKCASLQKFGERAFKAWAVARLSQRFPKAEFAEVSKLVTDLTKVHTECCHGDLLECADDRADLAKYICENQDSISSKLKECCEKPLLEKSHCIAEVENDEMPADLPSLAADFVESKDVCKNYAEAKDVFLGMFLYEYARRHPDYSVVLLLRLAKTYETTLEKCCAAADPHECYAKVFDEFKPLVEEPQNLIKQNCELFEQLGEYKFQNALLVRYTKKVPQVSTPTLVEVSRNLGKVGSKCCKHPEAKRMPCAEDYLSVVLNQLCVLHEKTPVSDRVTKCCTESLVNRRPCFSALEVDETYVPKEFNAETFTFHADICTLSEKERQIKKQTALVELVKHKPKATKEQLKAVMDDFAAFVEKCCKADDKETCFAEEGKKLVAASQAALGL

| Compound | IC50 [1, 10] [µM] | CC50 [2] [µM] | Ratio CC50/IC50 [3] | Ka [4] | IC50 [5] [µM] | CC50 [6] [µM] | Ratio CC50/IC50 [7] | IC50 ([1]; tzm-bl) | inhibition [8] | inhibition [9] |
| --- | --- | --- | --- | --- | --- | --- | --- | --- | --- | --- |
| Cc1cc2c(c(O)c1-c1c(C)cc3c(c1O)/C(=C/N[C@@H](Cc1c[nH]cn1)C(=O)[O-])C(=O)C(O)=C3C(C)C)/C(=C/N[C@@H](Cc1c[nH]cn1)C(=O)[O-])C(=O)C(O)=C2C(C)C.[Na+].[Na+] | 1.58 | 51.2 | 32.38 | 6.7205 ×10⁴ L/mol | 41.2 | > 41.2 | >1 | – | – | – |
| CC(=O)N[C@H]1[C@H]([C@H](O)[C@H](O)CO)OC(C(=O)O)=C[C@@H]1NC(=N)N [ZANAMIVIR] | – | – | – | – | 0.12 | > 100 | >836 | – | – | – |
| COC(=O)[C@H](CC(C)C)N/C=C1\C(=O)C(O)=C(C(C)C)c2cc(C)c(-c3c(C)cc4c(c3O)/C(=C/N[C@@H](CC(C)C)C(=O)OC)C(=O)C(O)=C4C(C)C)c(O)c21 | – | 33.6 | – | 7.1236 ×10³ L/mol | 8.63 | > 42.8 | >5 | Not Active | – | – |
| COC(=O)[C@H](C)N/C=C1\C(=O)C(O)=C(C(C)C)c2cc(C)c(-c3c(C)cc4c(c3O)/C(=C/N[C@@H](C)C(=O)OC)C(=O)C(O)=C4C(C)C)c(O)c21 | – | 25.6 | – | 1.0413 ×10⁴ L/mol | 1.16 | > 48.5 | >41.77 | Not Active | – | – |
| Cc1cc2c(c(O)c1-c1c(C)cc3c(c1O)/C(=C/N[C@H](C(=O)[O-])C(C)C)C(=O)C(O)=C3C(C)C)/C(=C/N[C@H](C(=O)[O-])C(C)C)C(=O)C(O)=C2C(C)C.[Na+].[Na+] | 1.14 | 70.3 | 61.68 | 2.114 ×10⁵ L/mol | 1.78 | > 43.9 | >24.64 | – | Active | inactive |
| Cc1cc2c(C(C)C)c(O)c(O)c(/C=N/[C@@H](Cc3ccccc3)C(=O)[O-])c2c(O)c1-c1c(C)cc2c(C(C)C)c(O)c(O)c(/C=N/[C@@H](Cc3ccccc3)C(=O)[O-])c2c1O.[Na+].[Na+] | 1.77 | 57.1 | 32.27 | 1.2835 ×10⁵ L/mol | 7.79 | > 38.9 | >5 | – | – | – |
| Cc1cc2c(c(O)c1-c1c(C)cc3c(c1O)/C(=C/N[C@@H](Cc1ccc(O)cc1)C(=O)[O-])C(=O)C(O)=C3C(C)C)/C(=C/N[C@@H](Cc1ccc(O)cc1)C(=O)[O-])C(=O)C(O)=C2C(C)C.[Na+].[Na+] | 1.62 | 54.8 | 33.81 | 7.5353 ×10⁴ L/mol | 37.5 | > 37.5 | >1 | – | – | – |
| Cc1cc2c(c(O)c1-c1c(C)cc3c(c1O)/C(=C/N[C@@H](CS)C(=O)[O-])C(=O)C(O)=C3C(C)C)/C(=C/N[C@@H](CS)C(=O)[O-])C(=O)C(O)=C2C(C)C.[Na+].[Na+] | 3.73 | 16.5 | 4.42 | 8.2016 ×10³ L/mol | 43.4 | > 43.4 | >1 | – | – | – |
| Cc1cc2c(c(O)c1-c1c(C)cc3c(c1O)/C(=C/NC(C(=O)[O-])c1ccc(Cl)cc1)C(=O)C(O)=C3C(C)C)/C(=C/NC(C(=O)[O-])c1ccc(Cl)cc1)C(=O)C(O)=C2C(C)C.[Na+].[Na+] (stereo unspecified) | 1.28 | 21.9 | 17.12 | 1.2868 ×10⁴ L/mol | 21.5 | > 37.2 | >1.73 | – | – | – |
| Cc1cc2c(c(O)c1-c1c(C)cc3c(c1O)/C(=C/N[C@@H](CC(C)C)C(=O)[O-])C(=O)C(O)=C3C(C)C)/C(=C/N[C@@H](CC(C)C)C(=O)[O-])C(=O)C(O)=C2C(C)C.[Na+].[Na+] | 1.37 | 42.8 | 31.26 | 1.3483 ×10⁴ L/mol | 8.46 | > 47.4 | >5.6 | – | – | – |
| Cc1cc2c(c(O)c1-c1c(C)cc3c(c1O)/C(=C/N[C@@H](CO)C(=O)[O-])C(=O)C(O)=C3C(C)C)/C(=C/N[C@@H](CO)C(=O)[O-])C(=O)C(O)=C2C(C)C.[Na+].[Na+] | 2.88 | 68.3 | 23.72 | 5.7756 ×10⁴ L/mol | 45.3 | > 45.3 | >1 | – | – | – |
| Cc1cc2c(c(O)c1-c1c(C)cc3c(c1O)/C(=C/N[C@@H](C)C(=O)[O-])C(=O)C(O)=C3C(C)C)/C(=C/N[C@@H](C)C(=O)[O-])C(=O)C(O)=C2C(C)C.[Na+].[Na+] | 1.22 | 56.2 | 46.09 | 1.0392 ×10⁵ L/mol | 0.87 | > 47.3 | >54.41 | – | Active | inactive |
| Cc1cc2c(c(O)c1-c1c(C)cc3c(c1O)/C(=C/NC(C)(C)C(=O)[O-])C(=O)C(O)=C3C(C)C)/C(=C/NC(C)(C)C(=O)[O-])C(=O)C(O)=C2C(C)C.[Na+].[Na+] | 1.39 | 99 | 71.19 | 1.9125 ×10⁵ L/mol | 1.05 | > 45.5 | >43.37 | – | Active | inactive |
| enfuvirtide | 0.0988 | – | – | – | – | – | – | – | Active | inactive |
| Cc1cc2c(c(O)c1-c1c(C)cc3c(c1O)/C(=C/N[C@H](C(=O)[O-])c1ccccc1)C(=O)C(O)=C3C(C)C)/C(=C/N[C@H](C(=O)[O-])c1ccccc1)C(=O)C(O)=C2C(C)C.[Na+].[Na+] | 1.45 | 29.9 | 20.64 | 1.4015 ×10⁴ L/mol | 8.06 | > 40.3 | >5 | – | – | – |
| Cc1cc2c(c(O)c1-c1c(C)cc3c(c1O)/C(=C/NCCS(=O)(=O)[O-])C(=O)C(O)=C3C(C)C)/C(=C/NCCS(=O)(=O)[O-])C(=O)C(O)=C2C(C)C.[Na+].[Na+] [MEGOSIN] | 1.24 | 53.4 | 43.03 | 1.7559 ×10⁴ L/mol | 8.59 | > 43 | >5 | – | – | – |
| NC12CC3CC(CC(C3)C1)C2 [AMANTADINE] | – | – | – | – | 2.38 | > 220 | >92.59 | – | – | – |
| COC(=O)C(N/C=C1\C(=O)C(O)=C(C(C)C)c2cc(C)c(-c3c(C)cc4c(c3O)/C(=C/NC(C(=O)OC)c3ccccc3)C(=O)C(O)=C4C(C)C)c(O)c21)c1ccccc1 (stereo unspecified) | – | 31.5 | – | 4.2658 ×10⁴ L/mol | 8.21 | > 41.1 | >5 | Not Active | – | – |
| Cc1cc2c(c(O)c1-c1c(C)cc3c(c1O)/C(=C/NCCCCCCCC(=O)[O-])C(=O)C(O)=C3C(C)C)/C(=C/NCCCCCCCC(=O)[O-])C(=O)C(O)=C2C(C)C.[Na+].[Na+] | 2.84 | 29.6 | 10.44 | 2.8629 ×10⁴ L/mol | 39.5 | > 39.5 | >1 | – | – | – |
| COC(=O)[C@H](Cc1c[nH]c2ccccc12)N/C=C1\C(=O)C(O)=C(C(C)C)c2cc(C)c(-c3c(C)cc4c(c3O)/C(=C/N[C@@H](Cc3c[nH]c5ccccc35)C(=O)OC)C(=O)C(O)=C4C(C)C)c(O)c21 | – | 22 | – | 2.262 ×10³ L/mol | 7.26 | > 36.3 | >5 | Not Active | – | – |
| CCOC(=O)CN/C=C1\C(=O)C(O)=C(C(C)C)c2cc(C)c(-c3c(C)cc4c(c3O)/C(=C/NCC(=O)OCC)C(=O)C(O)=C4C(C)C)c(O)c21 | – | 25.7 | – | 1.9028 ×10² L/mol | 9.69 | > 48.5 | >5 | Not Active | – | – |
| Cc1cc2c(c(O)c1-c1c(C)cc3c(c1O)/C(=C/NCCCCC(=O)[O-])C(=O)C(O)=C3C(C)C)/C(=C/NCCCCC(=O)[O-])C(=O)C(O)=C2C(C)C.[Na+].[Na+] | 1.71 | 32.9 | 19.25 | 2.4288 ×10⁴ L/mol | 19.5 | > 43.8 | >2.25 | – | – | – |
| Cc1cc2c(c(O)c1-c1c(C)cc3c(c1O)/C(=C/NCCCCCC(=O)[O-])C(=O)C(O)=C3C(C)C)/C(=C/NCCCCCC(=O)[O-])C(=O)C(O)=C2C(C)C.[Na+].[Na+] | 2.09 | 31.8 | 15.19 | 3.2203 ×10⁴ L/mol | 42.3 | > 42.3 | >1 | – | – | – |
| Cc1cc2c(c(O)c1-c1c(C)cc3c(c1O)/C(=C/NC(C(=O)[O-])c1ccc(O)cc1)C(=O)C(O)=C3C(C)C)/C(=C/NC(C(=O)[O-])c1ccc(O)cc1)C(=O)C(O)=C2C(C)C.[Na+].[Na+] (stereo unspecified) | 1.34 | 22.2 | 16.54 | 2.1607 ×10⁴ L/mol | 7.76 | > 38.8 | >5 | – | – | – |
| Cc1cc2c(c(O)c1-c1c(C)cc3c(c1O)/C(=C/NCC(=O)[O-])C(=O)C(O)=C3C(C)C)/C(=C/NCC(=O)[O-])C(=O)C(O)=C2C(C)C.[Na+].[Na+] | – | – | – | 1.2462 ×10⁴ L/mol | 9.87 | > 49.3 | >5 | – | – | – |
